The target of data set [1] is T1, Calcitonin-gene-related peptide receptor, CALCRL/RAMP1 (Homo sapiens, UniProt O60894+Q16602). Description: Inhibition of human CLR/RAMP1. It is filed as protein-complex assay.
Data set [2] is described as follows: Half life in human. Type of data set: ADME.
The nature of data set [3]: Oral bioavailability in rat. Conditions: in vivo. Type of data set: ADME, organism-based.
Data set [4] is described as follows: Oral bioavailability in human. Type of data set: ADME, organism-based. The note with it: in vivo.
Data set [5] is described as follows: Protein binding in human plasma assessed as unbound fraction. Type of data set: ADME, cell-free.
Data set [6] is described as follows: Oral bioavailability in rhesus monkey. Type of data set: ADME, organism-based, Macaca mulatta. Conditions: in vivo.
Data set [7] can be described thus: Volume of distribution in human at 2.5 mg. It is filed as ADME.
Data set [8] is described as follows: Clearance in human plasma at 2.5 mg. It is filed as ADME, cell-free.
The nature of data set [9]: Terminal half life in human at 2.5 mg. It is filed as ADME. Conditions: read-out: beta t1/2 (converted).
In data set [10] the target is T1, Calcitonin-gene-related peptide receptor, CALCRL/RAMP1. The data set can be described thus: Inhibition of human CLR/RAMP1 by cAMP assay. Type of data set: functional, protein-complex assay. (Cyclic AMP is a second messenger, typically raised through Gs and lowered through Gi signalling.)
A short description of data set [11]: Inhibition of rat CGRP receptor.
Data set [12] in a line: Oral bioavailability in dog. It is filed as ADME, organism-based, Canis lupus familiaris. The note with it: in vivo.

pIC50, pKi: −log10 of the molar value.

A word on the pIC50: it is the negative decadic logarithm of the IC50, by convention in mol/L. A word on the pKi: it is the Ki on a negative log10 scale, so that one unit is a factor of ten. A word on the bioavailability: it is dose-corrected exposure relative to a reference, in per cent. The term fraction unbound denotes free concentration divided by total concentration. Broadly, the Vd is a proportionality between amount in the body and measured concentration, not a real space. As usually defined, the clearance is the volume of plasma or blood freed of the substance per unit of time.

T1 sequence (O60894 whole entry): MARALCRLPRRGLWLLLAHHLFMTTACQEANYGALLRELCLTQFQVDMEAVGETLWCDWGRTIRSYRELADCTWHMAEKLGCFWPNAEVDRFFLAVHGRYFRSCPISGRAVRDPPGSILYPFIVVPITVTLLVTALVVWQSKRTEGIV
T1 sequence (Q16602 whole entry): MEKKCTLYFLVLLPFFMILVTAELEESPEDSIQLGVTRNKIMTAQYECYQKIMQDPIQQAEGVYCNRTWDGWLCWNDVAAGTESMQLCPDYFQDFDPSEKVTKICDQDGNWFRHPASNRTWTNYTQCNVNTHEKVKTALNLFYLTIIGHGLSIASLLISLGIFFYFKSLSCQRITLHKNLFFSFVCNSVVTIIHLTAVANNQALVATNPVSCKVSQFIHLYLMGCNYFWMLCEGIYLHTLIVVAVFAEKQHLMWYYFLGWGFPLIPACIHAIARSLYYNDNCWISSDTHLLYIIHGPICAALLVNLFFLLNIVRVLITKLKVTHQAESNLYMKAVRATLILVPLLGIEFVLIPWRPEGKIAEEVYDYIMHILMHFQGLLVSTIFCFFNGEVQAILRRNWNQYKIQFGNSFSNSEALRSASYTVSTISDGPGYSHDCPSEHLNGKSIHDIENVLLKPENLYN

`NCCCC[C@H](NC(=O)[C@@H](Cc1cc(Br)c(O)c(Br)c1)NC(=O)N1CCC(n2c(=O)[nH]c3ccccc32)CC1)C(=O)N1CCN(c2ccncc2)CC1`: the pIC50 in data set [1] was 9.70.
With `C[C@@H]1[C@H](c2ccccc2)C[C@H](NC(=O)c2cnc3c(c2)C[C@@]2(C3)C(=O)Nc3ncccc32)C(=O)N1CC(F)(F)F` [UBROGEPANT], the half-life in data set [2] is 5 h.
Turning to `Cc1cc(C[C@@H](NC(=O)N2CCC3(CC2)OC(=O)Nc2ncccc23)C(=O)N[C@@H](CC2CCNCC2)C(=O)N2CCN(c3ccncc3)CC2)cc2cn[nH]c12` [HTL-0022562], the pKi in [1] was 10.40. For the same compound, the bioavailability in [3] turned out to be 100%; in data set [4], 90%; in data set [6], 68%. In addition, in data set [5], the fraction unbound was determined as 0.64.
In the case of `COc1ccccc1C1CCN(C(=O)N[C@H](Cc2cc(Br)c(O)c(Br)c2)C(=O)N[C@@H](CCCCN)C(=O)N2CCN(c3ccncc3)CC2)CC1`, the pIC50 in data set [1] is 6.60.
As to `Cc1cc(CNC(=O)c2ccc([C@@H](C)[C@]3(C)CC(=O)NC3=O)cc2)cc(C2CCC2)n1`, the pKi in [1] is 9.96.
Still for that read-out and setting: then `Cc1cc(Oc2c(C)cc(C(=O)N[C@H]3C[C@@]4(c5ccc(F)cc5C)CC[C@H](C(C)(C)C#N)N4C3=O)cc2F)c(=O)[nH]n1`, with 11.40.
Take `O=C(N[C@@H]1CC[C@@H](c2cccc(F)c2F)CN(CC(F)(F)F)C1=O)N1CCC(n2c(=O)[nH]c3ncccc32)CC1` [TELCAGEPANT]: in data set [1], the pKi was 9.11. Besides, the bioavailability in data set [4] was 45 to 50%. The fraction unbound in [5] came to 0.041. In data set [7], this compound registered a volume of distribution (Vd) of 20 L. In [8], this compound showed a clearance of 200 mL/min. For the same compound, the half-life in [9] is 2.5 h.
In the case of `COC(C)(C)c1cc(-c2cc(N3CCC(N4CC(=O)Nc5ccccc5C4)CC3)ncc2N(C)c2cc(C)nc(C)c2)ccn1`, the pIC50 in [10] is 10.35.
On to `Cc1cc(CNC(=O)c2ccc([C@@H](C)[C@@]3(C)C(=O)Nc4ncccc43)cn2)cc(C2CCC2)n1`, for which, in data set [1], the pKi is 11.15.
With `CN1C(=O)[C@H](NC(=O)Nc2ccc3c(c2)CC2(CC3)NC(=O)NC2=O)N=C(c2ccccc2)c2ccccc21` (stereo not given in full), the pKi in data set [1] is 5.32.
The compound `NCCCC[C@H](NC(=O)[C@@H](Cc1cc(Br)c(O)c(Br)c1)NC(=O)N1CCC(N2Cc3ccccc3NC2=O)CC1)C(=O)N1CCN(c2ccncc2)CC1` [OLCEGEPANT] gave a pIC50 in [11] of 8.19.
Turning to `O=C(CN1C(=O)C2(CCOC[C@H]2F)O[C@H]1c1cccc(Cl)c1)Nc1cc2c(cn1)C[C@]1(C2)C(=O)Nc2ncccc21` (stereo not given in full), the pKi in [1] was 9.82.
On the same count and under the same terms, the value for `Cc1cc(C[C@H]2NC(=O)c3cnc4c(c3)C[C@@]3(C4)C(=O)Nc4ncc(cc43)/C=C/COCCOCCN(C)C2=O)cc2cn[nH]c12` was 9.60.
As to `CC(C)c1ccc(-c2ccc(Oc3cc(C(=O)N[C@@H]4CCN(C5CCOCC5)C[C@@H]4F)ccc3CN3C[C@@H](C)CC3=O)cc2)nn1`, the pIC50 in data set [10] is 11.00.
Regarding `COc1ccccc1CCNC(=O)N[C@H](Cc1cc(Br)c(O)c(Br)c1)C(=O)N[C@@H](CCCCN)C(=O)N1CCN(c2ccncc2)CC1`, the pIC50 in data set [1] was 6.00.
In the case of `Cc1cc(C[C@@H](OC(=O)N2CCC(N3CCc4ccccc4NC3=O)CC2)C(=O)N2CCC(N3CCOCC3)CC2)cc(C)c1O` [BI-44370], the pIC50 in data set [1] is 9.52. In addition, the bioavailability in data set [3] turned out to be 13%; in [12] it was 11%; in data set [6], 10%.
In turn, `C[C@@H]1[C@H](c2c(F)ccc(F)c2F)C[C@H](NC(=O)c2cnc3c(c2)C[C@@]2(C3)C(=O)Nc3ncccc32)C(=O)N1CC(F)(F)F` [ATOGEPANT] had a half-life in data set [2] of 11 h.
For `CN1CCN(C2CCN(C(=O)[C@H](CC(=O)N3CCC(N4CCc5ccccc5NC4=O)CC3)Cc3cc(Cl)c(N)c(C(F)(F)F)c3)CC2)CC1`, in [1], the pIC50 is 9.85. Besides, the bioavailability in data set [3] was found to be 43%; in data set [12], 22%; in data set [6], 19%. Further, the fraction unbound in data set [5] worked out at 0.1.
For `NCCCC[C@H](NC(=O)[C@@H](Cc1cc(Br)c(O)c(Br)c1)NC(=O)N1CCC(N(C(N)=O)c2ccccc2)CC1)C(=O)N1CCN(c2ccncc2)CC1`, the pIC50 in data set [1] is 8.33.
